Data taken from US20100215638A1, “METHOD FOR TREATMENT OF PROSTATE CANCER AND SCREENING OF PATIENTS BENEFITING FROM SAID METHOD” (VALTION TEKNILLINEN TUTKIMUSKESKUS, priority 2006, published 2010).
Read-outs that look alike come from different tables or passages of the source.

What was measured:
Type in all cases: cell-based, human
[1] = test system: ERG-positive prostate cancer cell line VCaP; assay: Bead-array gene expression with GSEA of MSigDB pathways
Procedure: Gene expression analysis by bead-arrays. Early passage VCaP and LNCaP cells were grown to approximately 70% confluence before treatments with 300 nM trichostatin A (Sigma) or 500 nM MS-275 (Sigma) for 6 and 12 hours. For androgen ablation, the cells were plated in androgen-deprived medium. 300 nM trichostatin A (Sigma) or 500 nM MS-275 (Sigma) were added for 6 hours and 12 hours before harvesting. Hormone-replacement treatment was performed by supplementing the full RPMI 1640 medium with 10% charcoal-stripped serum. Total RNA was extracted according to the manufacturer's protocol using Trizol reagent (Invitrogen, Carlsbad, Calif.). Integrity of the RNA prior to hybridization was monitored using a Bioanalyzer 2100 (Agilent, Santa Clara, Calif.) (according to manufacturer's instruction). […] The arrays were scanned with the BeadArray Reader (Illumina).
Statistical analysis. The raw data was quantile-normalized and analyzed by using the R/Bioconductor software (http://www.r-project.org/, http://www.bioconductor.org/). Mean for ERG signature genes for at least two replicates per condition was calculated and the treatment values were extracted from controls to illustrate the fold changes presented on Table 5. […]

ERG gene signature = assay: Bead-array gene expression with GSEA of ERG gene signature reversal; settings: 12 h treatment, 300 nM TSA or 500 nM MS-275
Procedure: Gene expression analysis by bead-arrays. Early passage VCaP and LNCaP cells were grown to approximately 70% confluence before treatments with 300 nM trichostatin A (Sigma) or 500 nM MS-275 (Sigma) for 6 and 12 hours. For androgen ablation, the cells were plated in androgen-deprived medium. 300 nM trichostatin A (Sigma) or 500 nM MS-275 (Sigma) were added for 6 hours and 12 hours before harvesting. Hormone-replacement treatment was performed by supplementing the full RPMI 1640 medium with 10% charcoal-stripped serum. Total RNA was extracted according to the manufacturer's protocol using Trizol reagent (Invitrogen, Carlsbad, Calif.). Integrity of the RNA prior to hybridization was monitored using a Bioanalyzer 2100 (Agilent, Santa Clara, Calif.) (according to manufacturer's instruction). 500 ng of purified total RNA was amplified with the TotalPrep Kit (Ambion, Austin, Tex.) and the biotin labelled cRNA was hybridized to Sentrix HumanRef-8 Expression BeadChips (Illumina, San Diego, Calif.). The arrays were scanned with the BeadArray Reader (Illumina).
Statistical analysis. The raw data was quantile-normalized and analyzed by using the R/Bioconductor software (http://www.r-project.org/, http://www.bioconductor.org/). Mean for ERG signature genes for at least two replicates per condition was calculated and the treatment values were extracted from controls to illustrate the fold changes presented on Table 5. Gene set enrichment analysis (GSEA) was performed for the HDAC inhibitor treatment and androgen ablation data with the GSEA software v2.0.1 (http://www.broad.mit.edu/gsea/). Our own previously defined ERG gene signature was used to evaluate the statistical significance of the signature reversal by HDAC inhibitors and androgen ablation (Table 6.). MSigDB gene sets were used for studying the pathways affected by HDAC inhibitors TSA and MS-275 in ERG-positive prostate cancer cell line VCaP (FIGS. 12 and 13).

[2] = test system: DuCaP prostate cancer cell; assay: Cell titer blue assay of cell number after TSA treatment; settings: 48 h incubation, 384-well plates 2000 cells/well
Procedure: (§1) FIG. 6. Analysis of the effect of Trichostatin A (TSA) treatment on VCaP and DuCaP prostate cancer cell number by using cell titer blue assay. Briefly, cells were plated in low concentration on 384-well plates (2000 cells/well) and let to attach overnight. Drug containing medium was added and CTB assay measurement with Envision Plate reader were done after 48 h incubation. […] For drawing the figure, cell culture medium only containing well intensities were extracted from actual measurements. Each data point is represented by the mean value of three independent measurements (mean+S.D.). Drug concentrations are presented on x-axis and relative cell number (control level set to 1) on y-axis. Statistical significance ([…]) of the differences between cell amounts in treated wells in comparison to untreated control wells is indicated with star using Student's t-test assuming that the data is unpaired and variance is unequal.

[3] = test system: VCaP prostate cancer cell; assay: as above; settings: 48 h incubation, 384-well plates 2000 cells/well
Procedure: as §1

SMILES | effect on pathways associated to ERG-positive prostate tumors [1] | ES (Enrichement score) (ERG gene signature) | Gene set (number of genes showing core enrichment/total number of genes in the ERG gene set) (ERG gene signature) | NES (Normalized enrichment score) (ERG gene signature) | effect on pathways associated to ERG-positive prostate tumors ([1]; VCaP, GSEA with MSigDB gene sets) | effect on cell number (relative cell number, cell titer blue assay) [2] | effect on cell number (relative cell number, cell titer blue assay) ([2]; listed as Trichostatin A) | effect on cell number (relative cell number, cell titer blue assay) [3] | effect on cell number (relative cell number, cell titer blue assay) ([3]; listed as Trichostatin A)
Nc1ccccc1NC(=O)c1ccc(CNC(=O)OCc2cccnc2)cc1 [MS-275] | reverses the pathways associated to ERG-positive prostate tumors |  |  |  |  |  |  |  | 
CC(/C=C/C(=O)NO)=C\[C@@H](C)C(=O)c1ccc(N(C)C)cc1 [TSA, Trichostatin A] |  | −0.75 | 29/47 | −1.63 | reverses the pathways associated to ERG-positive prostate tumors | clear dose dependent growth inhibition | strong responses | clear dose dependent growth inhibition | strong responses
